Source: ChEMBL document CHEMBL6087392, “Discovery of ZG-2305, an Orally Bioavailable Factor Inhibiting HIF Inhibitor for the Treatment of Obesity and Fatty Liver Disease” (J Med Chem, 2025)
pIC50: −log10 of the molar value.

Key:
Cytochrome P450 1A2 = biological target: T1, Cytochrome P450 1A2 (Homo sapiens, UniProt P05177); assay: Inhibition of CYP1A2 in human liver microsomes using phenacetin as substrate preincubated for 5 mins followed by NADPH addition and measured after 10 mins by LC-MS/MS analysis; assay type: ADME, Microsome
T1 sequence (P05177 whole entry): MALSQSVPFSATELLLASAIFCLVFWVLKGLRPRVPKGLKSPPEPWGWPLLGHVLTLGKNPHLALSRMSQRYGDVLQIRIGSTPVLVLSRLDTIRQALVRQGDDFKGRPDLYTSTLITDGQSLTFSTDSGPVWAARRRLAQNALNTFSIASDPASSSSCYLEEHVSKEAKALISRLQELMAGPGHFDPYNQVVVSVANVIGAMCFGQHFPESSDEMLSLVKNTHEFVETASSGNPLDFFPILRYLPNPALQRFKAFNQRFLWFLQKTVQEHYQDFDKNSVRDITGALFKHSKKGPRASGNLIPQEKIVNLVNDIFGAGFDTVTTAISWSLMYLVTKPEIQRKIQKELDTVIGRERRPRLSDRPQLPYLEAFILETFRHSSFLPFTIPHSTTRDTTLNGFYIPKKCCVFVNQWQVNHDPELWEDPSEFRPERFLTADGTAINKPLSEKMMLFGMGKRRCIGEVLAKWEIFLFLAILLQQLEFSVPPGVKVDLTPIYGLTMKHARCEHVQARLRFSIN

Cytochrome P450 2C9 = Cytochrome P450 2C9 (Homo sapiens, UniProt P11712); assay: Inhibition of CYP2C9 in human liver microsomes using diclofenac as substrate preincubated for 5 mins followed by NADPH addition and measured after 10 mins by LC-MS/MS analysis; assay type: ADME, Microsome
Chain of Cytochrome P450 2C9 (P11712 whole entry): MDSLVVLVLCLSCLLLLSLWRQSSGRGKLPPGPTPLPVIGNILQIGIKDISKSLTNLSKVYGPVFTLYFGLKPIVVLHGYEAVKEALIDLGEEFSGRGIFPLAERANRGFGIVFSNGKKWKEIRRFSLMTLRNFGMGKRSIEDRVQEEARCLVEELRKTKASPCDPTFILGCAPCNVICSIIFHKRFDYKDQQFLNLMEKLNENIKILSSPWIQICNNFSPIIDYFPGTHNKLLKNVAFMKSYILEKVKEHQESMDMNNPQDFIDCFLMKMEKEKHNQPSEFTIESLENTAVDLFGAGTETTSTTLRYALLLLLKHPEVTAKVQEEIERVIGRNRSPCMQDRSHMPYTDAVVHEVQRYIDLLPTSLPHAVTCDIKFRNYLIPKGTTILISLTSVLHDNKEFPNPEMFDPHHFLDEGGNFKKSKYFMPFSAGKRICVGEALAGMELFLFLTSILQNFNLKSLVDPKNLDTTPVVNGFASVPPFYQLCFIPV

Cytochrome P450 2C19 = Cytochrome P450 2C19 (Homo sapiens, UniProt P33261); assay: Inhibition of CYP2C19 in human liver microsomes using S-mephenytoin as substrate preincubated for 5 mins followed by NADPH addition and measured after 45 mins by LC-MS/MS analysis; assay type: ADME, Microsome
Chain of Cytochrome P450 2C19 (P33261 whole entry): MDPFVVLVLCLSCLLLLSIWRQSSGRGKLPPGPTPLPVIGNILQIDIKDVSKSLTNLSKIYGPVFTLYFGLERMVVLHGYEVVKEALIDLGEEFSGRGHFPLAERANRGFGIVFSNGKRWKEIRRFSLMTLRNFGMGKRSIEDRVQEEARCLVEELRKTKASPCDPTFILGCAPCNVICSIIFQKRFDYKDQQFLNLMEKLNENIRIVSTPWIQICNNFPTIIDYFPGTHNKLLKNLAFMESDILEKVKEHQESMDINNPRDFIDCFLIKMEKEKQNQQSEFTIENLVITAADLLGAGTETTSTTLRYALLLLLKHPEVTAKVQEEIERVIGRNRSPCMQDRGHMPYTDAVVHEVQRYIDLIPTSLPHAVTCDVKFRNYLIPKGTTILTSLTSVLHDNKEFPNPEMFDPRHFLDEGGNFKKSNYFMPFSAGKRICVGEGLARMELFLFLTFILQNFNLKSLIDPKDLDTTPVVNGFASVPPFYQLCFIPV

Cytochrome P450 2D6 = Cytochrome P450 2D6 (Homo sapiens, UniProt P10635); assay: Inhibition of CYP2D6 in human liver microsomes using bufuralol as substrate preincubated for 5 mins followed by NADPH addition and measured after 10 mins by LC-MS/MS analysis; assay type: ADME, Microsome
Chain of Cytochrome P450 2D6 (P10635 whole entry): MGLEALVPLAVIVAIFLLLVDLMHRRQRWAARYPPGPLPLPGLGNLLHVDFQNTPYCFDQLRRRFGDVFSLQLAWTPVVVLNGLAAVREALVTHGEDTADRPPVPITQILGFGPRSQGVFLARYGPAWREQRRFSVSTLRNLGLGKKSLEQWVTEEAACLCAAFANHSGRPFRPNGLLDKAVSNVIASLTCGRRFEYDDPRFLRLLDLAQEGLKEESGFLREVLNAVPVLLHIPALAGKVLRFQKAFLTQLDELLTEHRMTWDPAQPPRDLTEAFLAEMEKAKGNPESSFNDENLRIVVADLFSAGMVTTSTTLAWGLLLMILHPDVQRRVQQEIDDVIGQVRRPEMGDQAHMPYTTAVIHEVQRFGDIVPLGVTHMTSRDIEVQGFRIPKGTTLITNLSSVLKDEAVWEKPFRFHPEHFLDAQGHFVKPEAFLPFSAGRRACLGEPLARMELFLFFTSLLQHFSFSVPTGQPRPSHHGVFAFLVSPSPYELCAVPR

Cytochrome P450 3A4 = Cytochrome P450 3A4 (Homo sapiens, UniProt P08684); assay: Inhibition of CYP3A4 in human liver microsomes using testosterone as substrate preincubated for 5 mins followed by NADPH addition and measured after 5 mins by LC-MS/MS analysis; assay type: ADME, Microsome
Chain of Cytochrome P450 3A4 (P08684 whole entry): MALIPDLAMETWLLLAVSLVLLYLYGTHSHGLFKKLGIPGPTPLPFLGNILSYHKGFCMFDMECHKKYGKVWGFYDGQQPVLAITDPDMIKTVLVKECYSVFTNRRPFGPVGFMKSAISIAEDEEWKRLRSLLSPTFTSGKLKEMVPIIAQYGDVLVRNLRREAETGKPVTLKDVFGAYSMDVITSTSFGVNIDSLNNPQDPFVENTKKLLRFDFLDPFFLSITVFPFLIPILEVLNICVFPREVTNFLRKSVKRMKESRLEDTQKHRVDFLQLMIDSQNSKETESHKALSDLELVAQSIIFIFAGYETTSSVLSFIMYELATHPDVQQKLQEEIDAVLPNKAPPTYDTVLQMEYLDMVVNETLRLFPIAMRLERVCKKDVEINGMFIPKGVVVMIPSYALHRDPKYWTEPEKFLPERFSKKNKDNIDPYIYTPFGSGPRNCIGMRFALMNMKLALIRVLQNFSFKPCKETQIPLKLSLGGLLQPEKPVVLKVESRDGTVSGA

[1] = biological target: Voltage-gated inwardly rectifying potassium channel KCNH2 (Homo sapiens, UniProt Q12809); assay: Inhibition of human ERG at 30 uM; assay type: toxicity
Chain of Voltage-gated inwardly rectifying potassium channel KCNH2 (Q12809 whole entry): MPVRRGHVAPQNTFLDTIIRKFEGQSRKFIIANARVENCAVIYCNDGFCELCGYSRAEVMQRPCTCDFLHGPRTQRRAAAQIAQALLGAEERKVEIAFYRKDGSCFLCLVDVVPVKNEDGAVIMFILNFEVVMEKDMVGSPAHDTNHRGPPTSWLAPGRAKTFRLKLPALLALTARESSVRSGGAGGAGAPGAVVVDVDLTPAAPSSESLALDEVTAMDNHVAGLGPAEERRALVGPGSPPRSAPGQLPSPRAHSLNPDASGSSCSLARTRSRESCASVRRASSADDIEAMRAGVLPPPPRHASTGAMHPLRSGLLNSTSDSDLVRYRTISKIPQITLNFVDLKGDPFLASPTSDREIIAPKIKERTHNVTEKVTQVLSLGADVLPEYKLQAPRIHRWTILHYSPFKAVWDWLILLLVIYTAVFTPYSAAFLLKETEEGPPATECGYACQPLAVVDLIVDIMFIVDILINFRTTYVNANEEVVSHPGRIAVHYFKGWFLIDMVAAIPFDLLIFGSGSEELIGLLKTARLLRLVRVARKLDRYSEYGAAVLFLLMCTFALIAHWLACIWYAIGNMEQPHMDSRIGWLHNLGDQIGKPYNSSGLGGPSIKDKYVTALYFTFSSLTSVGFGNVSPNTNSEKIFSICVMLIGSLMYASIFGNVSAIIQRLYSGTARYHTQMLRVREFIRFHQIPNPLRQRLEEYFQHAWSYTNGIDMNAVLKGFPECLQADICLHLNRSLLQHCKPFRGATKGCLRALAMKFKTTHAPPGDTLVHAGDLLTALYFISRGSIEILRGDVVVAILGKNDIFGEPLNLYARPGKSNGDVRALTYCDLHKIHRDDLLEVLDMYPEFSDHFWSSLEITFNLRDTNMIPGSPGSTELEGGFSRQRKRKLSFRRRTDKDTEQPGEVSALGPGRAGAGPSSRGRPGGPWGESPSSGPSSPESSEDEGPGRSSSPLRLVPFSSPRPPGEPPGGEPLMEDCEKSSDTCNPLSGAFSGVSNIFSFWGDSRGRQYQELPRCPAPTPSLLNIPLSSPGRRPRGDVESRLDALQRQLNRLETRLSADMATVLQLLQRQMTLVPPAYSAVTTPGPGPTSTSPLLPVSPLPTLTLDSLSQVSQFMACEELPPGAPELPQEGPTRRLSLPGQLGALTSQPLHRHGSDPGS

[2] = Metabolic stability in rat liver microsomes assessed as intrinsic clearance in presence of NADPH by LC-MS/MS analysis
[3] = Inhibition of FIH (unknown origin); design: species or system Homo sapiens

O=C(O)CNC(=O)c1ncc(-c2cc(-c3cc(Cl)cc(Cl)c3)no2)cc1O
pIC50 (Cytochrome P450 1A2): < 4.52 | pIC50 (Cytochrome P450 2C9): < 4.52 | pIC50 (Cytochrome P450 2C19): < 4.52 | pIC50 (Cytochrome P450 2D6): < 4.52 | pIC50 (Cytochrome P450 3A4): < 4.52 | inhibition (INH) [1]: Not_active

C[C@]12CC[C@H]3[C@@H](CCC4=CC(=O)CC[C@@]43C)[C@@H]1CC[C@@H]2O [TESTOSTERONE]
microsomal CLint [2]: 1200 µL/min/mg

O=C(O)Cc1cs/c(=N\C(=O)C2CCN(S(=O)(=O)Cc3ccccc3)C2)n1O (stereo not drawn)
pIC50 [3]: 6.55
